What was measured:
factor IX = experiment: Plasma factor IX antigen ELISA, presurgical trial; format: in vivo, human; details: mean ± SD
Experimental: (§1) Plasma samples collected with anticoagulant K3-EDTA were used for human IGF-1 and SHBG assays, and coagulation protein assays (factor VIII, factor IX, von Willebrand factor, and protein S)[23]. The human IGF-1 and SHBG assays were performed with Quantikine Enzyme-linked immunosorbent assay (ELISA) Kits (R&D Systems, Cat # DG100 for IGF-1, and Cat # DSHBGO for SHBG assay). The lower limit of detection was 56 pg/ml, and 5 pmol/L; % CV values were 4.3 and 5.6 for IGF-1, and SHBG assay, respectively. Factor VIII, and factor IX were determined with VisuLize™ antigen ELISA kits (Affinity Biologicals Inc.). von Willebrand factor was measured with immune-turbidimetric assay (Diagnostica Stago Inc. Cat #00518) by STAR analyzer, and total protein S was assayed with an ELISA kit (REAADSR Inc.)

[1] = oral-T vs 4-OHT gel 2 mg daily, 2-3 weeks; cited from earlier work
COX-2 = COX-2 expression (H score) by immunohistochemistry, presurgical trial; format: in vivo, human; details: mean ± SD
Experimental: Assessments similar to those performed at baseline were repeated on the day prior to, or on the morning of surgery. During surgery, breast adipose tissue from the surgical sample was snap frozen and stored at −80° C. for measurement of tamoxifen and metabolites. The samples were obtained from a location adjacent to the DCIS lesion to provide uniformity between participants undergoing breast conservation and mastectomy. The paraffin block of the core and excision samples were acquired by the recruiting institution and 10 sections from each specimen were submitted to the NU Pathology Core Facility. The sections were cut in batches (with pre- and post-treatment samples in the same batch), shipped cold, and processed for immunohistochemistry within four weeks.
Secondary endpoints were 1) to compare concentrations of tamoxifen and its metabolites [4-OHT, endoxifen, N-desmethyl tamoxifen (NDT)] in breast tissue, plasma and NAF obtained on the day of surgery; 2) to assess changes in known tamoxifenmodulated pathways in the breast (COX-2 and maspin protein expression, [19,20]) and plasma (SHBG, IGF-1 [14]). Side effect endpoints were 1) the incidence of hot flashes at baseline and before surgery; 2) changes in coagulation related proteins in women on the gel and the oral arms from baseline to immediately before surgery.
Immunohistochemical (IHC) assessment of these markers was performed on paraffin embedded sections of the core and excision specimens, using standard IHC techniques and MCF7, HCT116 and H292 cells as controls. For maspin we used primary mouse monoclonal antibody (Clone-G167-70,BD Pharmingen, San Jose, Calif.), dilution 1:200; for COX-2, primary mouse monoclonal antibody (Clone-CX-294, Dako, Denmark), dilution 1:100-; and for Ki67, primary mouse monoclonal antibody (Clone-MIB-1, Dako, Denmark), dilution 1:100-antigen. Dako Envision Plus system HRP labeled polymer for 20 min at 37° C. was used as the detection system. […] The Ki67 LI was assessed on an average of 300 DCIS cells at 40× magnification. […]

[2] = 28 days; cited from earlier work
SHBG = experiment: Plasma SHBG ELISA, presurgical trial; format: in vivo, human; details: mean ± SD
Experimental: as §1

[3] = Study 1: oral tamoxifen vs transdermal 4-OHT and endoxifen gel, mammary and plasma concentrations; details: for concentration at 6 weeks: athymic nude (Hsd:RHFoxn1^rnu/rnu), rat, oral, 3 mg/kg/day
Experimental: (Z) tamoxifen was prepared as 3 mg/mL in sesame oil. For transdermal gel formulations, 4-OHT (E:Z=50:50) (1 mg/mL), (Z) endoxifen (1 mg/mL), and telapristone (1.5 mg/mL) were prepared in 60% (v/v) ethanol-phosphate buffer containing 0.5% (v/v) oleic acid [13] with 1.5% (w/v) Klucel hydroxypropyl cellulose.
Athymic nude rats (Hsd:RHFoxn1^rnu/rnu, Harlan Laboratories, Inc.) were provided with standard laboratory food and water ad libitum. […] In the gel groups, animals were anesthetized with isoflurane inhalation; the skin surface of axillary mammary glands was cleaned with alcohol swabs and air-dried; 0.1 mL drug gel was applied using a template with an exposed ellipse (π×R1×R2=π1 cm×0.6 cm) around the no. 2 nipple on each side and allowed to dry (total of 1, 0.5 mg/kg/day on each side); animals wore jackets fitted over the forelegs, to prevent loss of gel through grooming.
In both studies, rats were euthanized after 6 weeks of treatment for blood and tissue collections. The treated skin area was cleansed with alcohol prior to dissection. Blood samples were collected from the heart. We collected the whole mammary glands (1 axillary and 1 inguinal) per animal and measured their drug concentrations separately.
The concentrations of all the drugs used in rats and humans were determined by liquid chromatography-tandem mass spectroscopy (API 3000; AB SCIEX, Foster City, Calif., USA). […] The mobile phase was A: 0.1% formic acid in water (v/v) and B: 0.1% formic acid in acetonitrile (v/v). Details of sample processing and quantitation methods are described below. The lowest limits of quantification (LLOQ) were as follow: tamoxifen and N-desmethyl tamoxifen (NDT) (plasma 10 ng/mL; tissue 40 ng/g); 4-OHT and endoxifen (plasma 0.5 ng/mL; tissue 2 ng/g); telapristone and N-desmethyl telapristone (d-telapristone) (plasma 1 ng/mL; tissue 1.5 ng/g); and diclofenac (plasma 0.5 ng/mL; tissue 2 ng/g).
For preclinical studies, the summary statistics as medians and interquartile range (IQR) were reported by treatment group for each analyte obtained from plasma, axillary, and inguinal mammary glands. Concentration differences of each analyte between treatment groups and differences between mammary glands within each treatment group were assessed via the Wilcoxon rank-sum test, and the Wilcoxon signed rank-sum test, respectively.
(Z) tamoxifen and metabolites [(Z) NDT, (E) 4-OHT, and (Z) 4-OHT, (Z) endoxifen] were determined using LC-MS/MS (API 3000; AB SCIEX, Foster City, Calif.). A 100 μL aliquot of plasma was mixed with 200 μL of acetonitrile containing 1 ng each of the deuterated analogs of the analytes (TRC, Toronto, Canada). […]

IGF-1 = experiment: Plasma IGF-1 ELISA, presurgical trial; format: in vivo, human; details: mean ± SD
Experimental: as §1

total protein S = experiment: Plasma total protein S ELISA, presurgical trial; format: in vivo, human; details: mean ± SD
Experimental: as §1

CC/C(=C(\c1ccccc1)c1ccc(OCCN(C)C)cc1)c1ccccc1 [Tamoxifen, (Z)-tamoxifen]
% Factor IX post-treatment (factor IX; plasma after 6-10 weeks): 87.0 ± 12.2%
% Factor IX baseline (factor IX; plasma before treatment): 86.6 ± 8.8%
% Factor IX Changes from baseline (factor IX; plasma): 0.4 ± 10.2%
median 4-OHT concentration in nontumor breast tissue (previous study) [1]: 2.0 ng/g
COX-2 post-treatment (COX-2; DCIS lesions after 6-10 weeks): 78.9 ± 63.5 H-score
COX-2 baseline (COX-2; DCIS lesions before treatment): 67.2 ± 72.4 H-score
COX-2 Changes from baseline (COX-2; DCIS lesions, 6-10 weeks): 11.7 ± 109.8 H-score
ENX concentration in serum, oral TAM 1 mg daily [2]: 3 ng/mL
ENX concentration in serum, oral TAM 5 mg daily [2]: 9 ng/mL
ENX concentration in serum, oral TAM 20 mg daily [2]: 38 ng/mL
ENX concentration in tumor tissue, oral TAM 1 mg daily [2]: 31 ng/g
ENX concentration in tumor tissue, oral TAM 5 mg daily [2]: 80 ng/g
ENX concentration in tumor tissue, oral TAM 20 mg daily [2]: 340 ng/g
SHBG post-treatment (SHBG; plasma after 6-10 weeks): 143.9 ± 69.0 ng/mL
SHBG baseline (SHBG; plasma before treatment): 98.4 ± 45.0 ng/mL
SHBG Changes from baseline (SHBG; plasma): 45.5 ± 40.2 ng/mL
concentration at 6 weeks ([3]; axillary mammary gland): 44.2 ng/g
concentration at 6 weeks ([3]; inguinal mammary gland): 69.6 ng/g
concentration at 6 weeks ([3]; plasma): 8 ng/mL
deaths, weight loss, general health, skin irritation ([3]; rats, end of 6 week experiment): no deaths, no weight loss, and no skin irritation
IGF-1 post-treatment (IGF-1; plasma after 6-10 weeks): 50.3 ± 9.7 ng/mL
IGF-1 baseline (IGF-1; plasma before treatment): 59.0 ± 11.4 ng/mL
IGF-1 Changes from baseline (IGF-1; plasma): -8.7 ± 8.3 ng/mL
% Total Protein S post-treatment (total protein S; plasma after 6-10 weeks): 91.6 ± 12.2%
% Total Protein S baseline (total protein S; plasma before treatment): 94.3 ± 8.9%
% Total Protein S Changes from baseline (total protein S; plasma): −2.7 ± 9.3%
